System: castrated (ORX) male Sprague-Dawley rats
Assay: Anabolic and androgenic activity in castrated (ORX) male rats, daily oral gavage for fourteen days
Type: in vivo, rat
Details: maximal stimulation; comparator
Procedure: Male Sprague-Dawley rats weighing approximately 200 g were purchased from Harlan Bioproducts for Science (Indianapolis, Ind.).
The test article for this study was weighed and dissolved in 10% DMSO (Fisher) diluted with PEG 300 (Acros Organics, N.J.) for preparation of the appropriate dosage concentrations. […] Animals were randomly assigned to one of seven groups consisting of 4 to 5 animals per group. Control groups (intact and ORX) were administered vehicle daily. […] Where appropriate, animals were castrated on day one of the study.
In addition, ventral prostate, seminal vesicles, and levator ani muscle were removed, individually weighed, normalized to body weight, and expressed as a percentage of intact control. Student's T-test was used to compare individual dose groups to the intact control group. Significance was defined a priori as a P-value<0.05. Ventral prostate and seminal vesicle weights were evaluated as a measure of androgenic activity, whereas levator ani muscle weight was evaluated as a measure of anabolic activity. Blood was collected from the abdominal aorta, centrifuged, and sera were frozen at −80° C. prior to determination of serum hormone levels. Serum luteinizing hormone (LH) and follicle stimulating hormone (FSH) concentrations were determined.
(§1) The test article for this study was weighed and dissolved in 10% DMSO (Fisher) diluted with PEG 300 (Acros Organics, N.J.) for preparation of the appropriate dosage concentrations. […] Animals were randomly assigned to one of seven groups consisting of 4 to 5 animals per group. Control groups (intact and ORX) were administered vehicle daily. Compound of formula S-XXIII was administered via oral gavage at doses of 0.01, 0.03, 0.1, 0.3, 0.75, and 1 mg/day to both intact and ORX groups. Where appropriate, animals were castrated on day one of the study. Treatment with compound of formula S-XXIII began nine days post ORX and was administered daily via oral gavage for fourteen days.
Male Sprague-Dawley rats weighing approximately 200 g were purchased from Harlan Bioproducts for Science (Indianapolis, Ind.). […] Regenerative effects of the compound of formula S-XXIV in chronically (9 days) ORX rats was similarly evaluated.
as §1, with “S-XXIV” for “S-XXIII”
Male Sprague-Dawley rats weighing approximately 200 g were purchased from Harlan Bioproducts for Science (Indianapolis, Ind.). […] Anabolic and androgenic activity of compound of formula S-XXV in intact animals was evaluated, and the dose response in acutely orchidectomized (ORX) animals was evaluated as well.
The compound was weighed and dissolved in 10% DMSO (Fisher) diluted with PEG 300 (Acros Organics, N.J.) for preparation of the appropriate dosage concentrations.

Compound	Levator ani muscle weight, maximally stimulated
CC(=O)Nc1ccc(OC[C@](C)(O)C(=O)Nc2ccc([N+](=O)[O-])c(C(F)(F)F)c2)cc1 [S-4, S-3-(4-acetylaminophenoxy)-2-hydroxy-2-methyl-N-(4-nitro-3-trifluoromethylphenyl) propionamide, reference compound]	101%
CCC(=O)O[C@H]1CC[C@H]2[C@@H]3CCC4=CC(=O)CC[C@]4(C)[C@H]3CC[C@]12C [Testosterone propionate, reference compound]	104%
